Values joined by “and” are separate entries in the source; they are usually repeats but may differ in a detail not shown here. Equal entries are not always repeated. Marks after values point to notes of the source that are not given here.
What was measured:
[1] = tested on: subjects with type 2 diabetes and nephropathy; experiment: Example 2: Phase 2b randomized, double-blind, placebo-controlled 12-week study conducted in Japan; conditions: for Any adverse event / Any adverse event leading to discontinuation of study drug / Death / Fatal adverse event / Possibly or probably drug-related adverse event / Serious adverse event / Severe adverse event: N = 19; for Weight, LS Mean Change from Baseline (SE): Week 12; for UACR Change from Baseline LS Mean (SE) / UACR Geometric Mean Change (Percent): baseline to final on-treatment measurement
Method: The primary efficacy endpoint in this study was the change from Baseline to Week 12 in log-transformed UACR with the primary analysis conducted using MMRM with fixed effects for treatment, visit, and treatment-by-visit interaction, with baseline measurement and baseline-by-visit interaction as covariates.
All safety analyses were performed on treatment-emergent adverse events only. Treatment-emergent adverse events were defined as those that first occurred or worsened on or after the date of first dose of study drug through 30 days after the last dose of study drug.

[2] = Example 6: modeling data on edema risk based on a Phase 2A study (NCT00920764); design: species or system human
Source text: The graph was made by overlaying receptor occupancy data. (See also Table 20, below.)

[3] = tested on: subjects with type 2 diabetes and nephropathy; experiment: Example 4: combined data of Examples 1 and 2, statin / non-statin sub-populations, total and LDL cholesterol; type: in vivo, human; design: Total C, Mean Change / LDL, Mean Change: unit not given here
Method: A review of the data obtained from the studies detailed in Examples 1 and 2, above, with respect to total serum cholesterol and serum LDL cholesterol, indicated a meaningful reduction was achieved relative to baseline for both. For example, although the reduction in total serum cholesterol and serum LDL cholesterol for subjects receiving a 0.75 mg dose of atrasentan, after 12 weeks of therapy, varied, the average for both of the studies detailed in Examples 1 and 2 was approximately 14%. As a result, the data obtained from these studies as further reviewed subsequent to collection and a sub-population of subjects in each study was identified as receiving or taking a statin in combination with the atrasentan dose (either a 0.75 mg or 1.25 mg dose). The data relating to the impact of atrasentan on total serum cholesterol and serum LDL cholesterol from each study for this sub-population was combined and a new average (mean) baseline, as well as change relative thereto over the time period of the study, was calculated for each of the total serum cholesterol and serum LDL cholesterol. For purposes of comparison, data relating to the impact of atrasentan on total serum cholesterol and serum LDL cholesterol for each study for subjects that were not receiving or taking a statin was combined and a new average (mean) baseline, as well as change relative thereto over the time period of the study, was also calculated for each of the total serum cholesterol and serum LDL cholesterol.

ETAR = target: T1, ETAR (Homo sapiens, UniProt P25101); experiment: Example 6: receptor occupancy data overlaid on edema risk
T1 construct: Instead it rises proportionally across the ETAR receptor occupancy curve
T1 sequence (P25101 21-427): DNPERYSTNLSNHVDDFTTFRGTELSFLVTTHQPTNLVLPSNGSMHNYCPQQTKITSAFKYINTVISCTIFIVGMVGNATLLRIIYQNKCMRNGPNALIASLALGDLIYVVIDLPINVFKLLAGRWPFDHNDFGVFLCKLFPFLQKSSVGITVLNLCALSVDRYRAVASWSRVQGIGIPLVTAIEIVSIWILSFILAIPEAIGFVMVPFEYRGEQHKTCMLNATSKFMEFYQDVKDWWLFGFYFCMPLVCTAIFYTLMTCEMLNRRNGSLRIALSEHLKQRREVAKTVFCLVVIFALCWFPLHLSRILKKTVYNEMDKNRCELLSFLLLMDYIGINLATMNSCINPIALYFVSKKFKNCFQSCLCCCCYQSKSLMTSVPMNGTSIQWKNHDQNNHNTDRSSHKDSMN

[4] = subjects not receiving statins, 0.75 mg
[5] = subjects receiving statins and 0.75 mg of atrasentan

## CCCCN(CCCC)C(=O)CN1C[C@H](c2ccc3c(c2)OCO3)[C@@H](C(=O)O)[C@@H]1c1ccc(OC)cc1 [Atrasentan, (2R,3R,4S)-4-(1,3-benzodioxol-5-yl)-1-[2-(dibutylamino)-2-oxoethyl]-2-(4-methoxyphenyl)pyrrolidine-3-carboxylic acid]
[1]; 0.75 mg
  Any adverse event: 17 (89.5) N (%) of Subjects
  Any adverse event leading to discontinuation of study drug: 1 (5.3) N (%) of Subjects
  Death: 0 N (%) of Subjects
  Fatal adverse event: 0 N (%) of Subjects
  Possibly or probably drug-related adverse event: 7 (36.8) N (%) of Subjects
  Serious adverse event: 3 (15.8) N (%) of Subjects
  Severe adverse event: 1 (5.3) N (%) of Subjects
[1]; 0.75 mg/day
  Cholesterol, Difference (95% CI) from placebo: −26.1 (−42.77, −9.33) mg/dL
  Cholesterol, Final On-Treatment Visit Mean (SD): 173.5 (30.52) mg/dL
  Cholesterol, LS Mean Change from Baseline (SE): −28.0 (5.27) mg/dL
  HDL-C, Difference (95% CI) from placebo: −1.0 (−6.89, 4.91) mg/dL
  HDL-C, Final On-Treatment Visit Mean (SD): 48.8 (12.65) mg/dL
  HDL-C, LS Mean Change from Baseline (SE): −2.8 (1.86) mg/dL
  Had ≧30% Reduction in UACR and No Edema (no moderate or severe adverse event of edema): 8 (42.1) Number (%) of Subjects
  Hemoglobin, Difference (95% CI) from placebo: −1.22 (−1.863, −0.586) g/dL
  Hemoglobin, Final On-Treatment Visit Mean (SD): 11.74 (1.963) g/dL
  LDL-C, Difference (95% CI) from placebo: −19.4 (−33.56, −5.30) mg/dL
  LDL-C, Final On-Treatment Visit Mean (SD): 94.4 (29.10) mg/dL
  LDL-C, LS Mean Change from Baseline (SE): −18.6 (4.45) mg/dL
  Percentage of Subjects with ≧30% Reduction in Log-Transformed UACR from Baseline to Final Measurement: 52.6%
  Percentage of Subjects with ≧40% Reduction in Log-Transformed UACR from Baseline to Final Measurement: 31.6%
  Percentage of Subjects with ≧50% Reduction in Log-Transformed UACR from Baseline to Final Measurement: 21.1%
  Triglycerides, Difference (95% CI) from placebo: −32.9 (−74.44, 8.66) mg/dL
  Triglycerides, Final On-Treatment Visit Mean (SD): 148.1 (64.63) mg/dL
  Triglycerides, LS Mean Change from Baseline (SE): −28.8 (50.42) mg/dL
  Weight, Difference (95% CI) from placebo: 0.1 (−1.13, 1.36) kg
  Weight, Final On-Treatment Visit Mean (SD): 69.4 (13.26) kg
  fatigue leading to discontinuation: 1.7%
  geometric mean reduction in UACR, baseline to final on-treatment measurement: 31.44%
  incidence of peripheral edema: 21.1%
  mean (non-ambulatory) diastolic blood pressure change from baseline to last on-treatment visit: −5.74 mmHg
  mean ambulatory diastolic blood pressure change from baseline to Week 10: −6.0 mmHg
  mean ambulatory systolic blood pressure change from baseline to Week 10: −5.1 mmHg
  mean duration of edema: 38.2 days
  peripheral edema leading to discontinuation: 3.4%
  subjects discontinued from the study: 10.5%
  subjects who discontinued study drug because of adverse events: 5.3%
  Weight, LS Mean Change from Baseline (SE): 0.2 (0.45) kg
  UACR Change from Baseline LS Mean (SE): −0.38 (0.10) log mg/g creatinine
  UACR Geometric Mean Change (Percent): −31.44%
[1]; 0.75 mg/day vs placebo
  UACR Between-group Comparison Difference (95% CI): −0.41 (−0.69, −0.13)
[1]; 0.75 mg/day, Week 10
  mean eGFR, difference between atrasentan and placebo: statistically significant
[1]; 0.75 mg/day, increased
  mean (non-ambulatory) systolic blood pressure change from baseline to last on-treatment visit: 1.93 mmHg
[1]; 1.25 mg
  Any adverse event: 14 (73.7) N (%) of Subjects
  Any adverse event leading to discontinuation of study drug: 5 (26.3)* N (%) of Subjects
  Death: 0 N (%) of Subjects
  Fatal adverse event: 0 N (%) of Subjects
  Possibly or probably drug-related adverse event: 10 (52.6) N (%) of Subjects
  Serious adverse event: 2 (10.5) N (%) of Subjects
  Severe adverse event: 1 (5.3) N (%) of Subjects
[1]; 1.25 mg/day
  Cholesterol, Difference (95% CI) from placebo: −25.0 (−41.95, −8.04) mg/dL
  Cholesterol, Final On-Treatment Visit Mean (SD): 169.6 (37.60) mg/dL
  Cholesterol, LS Mean Change from Baseline (SE): −26.9 (5.41) mg/dL
  HDL-C, Difference (95% CI) from placebo: −2.3 (−8.24, 3.73) mg/dL
  HDL-C, Final On-Treatment Visit Mean (SD): 46.4 (12.12) mg/dL
  HDL-C, LS Mean Change from Baseline (SE): −4.1 (1.91) mg/dL
  Had ≧30% Reduction in UACR and No Edema (no moderate or severe adverse event of edema): 9 (52.9) Number (%) of Subjects
  Hemoglobin, Difference (95% CI) from placebo: −1.14 (−1.773, −0.497) g/dL
  Hemoglobin, Final On-Treatment Visit Mean (SD): 11.67 (2.300) g/dL
  LDL-C, Difference (95% CI) from placebo: −19.7 (−34.02, −5.36) mg/dL
  LDL-C, Final On-Treatment Visit Mean (SD): 92.1 (35.00) mg/dL
  LDL-C, LS Mean Change from Baseline (SE): −18.9 (4.57) mg/dL
  Percentage of Subjects with ≧30% Reduction in Log-Transformed UACR from Baseline to Final Measurement: 64.7%
  Percentage of Subjects with ≧40% Reduction in Log-Transformed UACR from Baseline to Final Measurement: 64.7%
  Percentage of Subjects with ≧50% Reduction in Log-Transformed UACR from Baseline to Final Measurement: 52.9%
  Triglycerides, Difference (95% CI) from placebo: −16.5 (−58.63, 25.64) mg/dL
  Triglycerides, Final On-Treatment Visit Mean (SD): 160.6 (73.37) mg/dL
  Triglycerides, LS Mean Change from Baseline (SE): −12.4 (68.76) mg/dL
  Weight, Difference (95% CI) from placebo: 0.4 (−0.96, 1.68) kg
  Weight, Final On-Treatment Visit Mean (SD): 74.9 (14.51) kg
  fatigue leading to discontinuation: 3.1%
  geometric mean reduction in UACR, baseline to final on-treatment measurement: 53.76%
  incidence of peripheral edema: 31.6%
  mean (non-ambulatory) diastolic blood pressure change from baseline to last on-treatment visit: −4.33 mmHg
  mean (non-ambulatory) systolic blood pressure change from baseline to last on-treatment visit: −2.93 mmHg
  mean ambulatory diastolic blood pressure change from baseline to Week 10: −6.8 mmHg
  mean ambulatory systolic blood pressure change from baseline to Week 10: −7.2 mmHg
  mean duration of edema: 54.8 days
  peripheral edema leading to discontinuation: 4.7%
  subjects discontinued from the study: 26.3%
  subjects who discontinued study drug because of adverse events: 26.3%
  Weight, LS Mean Change from Baseline (SE): 0.4 kg and 0.4 (0.49) kg
  UACR Change from Baseline LS Mean (SE): −0.77 (0.10) log mg/g creatinine
  UACR Geometric Mean Change (Percent): −53.76%
[1]; 1.25 mg/day vs placebo
  UACR Between-group Comparison Difference (95% CI): −0.80 (−1.09, −0.52)
[1]; 1.25 mg/day, Weeks 6, 8, and 10
  mean eGFR, difference between atrasentan and placebo: statistically significant
[1]; all treatment groups, changes not clinically meaningful
  mean HDL-C change: decreased slightly
[1]; both atrasentan groups (0.75 mg, 1.25 mg)
  cholesterol and LDL-C, differences from placebo: statistically significant
[1]; both atrasentan groups, at Week 2 and throughout the study
  hemoglobin relative to placebo: Statistically significantly mean decreases
[2]; Dose 0.25 mg
  Risk of edema: 15%
[2]; Dose 0.75 mg
  Risk of edema: 22%
[2]; Dose 1.75 mg
  Risk of edema: 43%
[3]; 0.75 mg dose, after 12 weeks of therapy
  reduction in total serum cholesterol and serum LDL cholesterol relative to baseline, average for both studies (Examples 1 and 2): approximately 14%
[3]; Non-Statin, 0.75 mg
  LDL, % Change: −13.1%
  LDL, Mean Change: −13.4
  Total C, % Change: −9.3%
  Total C, Mean Change: −14.9
[3]; Non-Statin, 1.25 mg
  LDL, % Change: −18.8%
  LDL, Mean Change: −21.0
  Total C, % Change: −12.8%
  Total C, Mean Change: −18.4
[3]; Statin sub-population, 0.75 mg
  LDL, % Change: −15.4%
  LDL, Mean Change: −12.8
  Total C, % Change: −10.4%
  Total C, Mean Change: −17.1
[3]; Statin sub-population, 1.25 mg
  LDL, % Change: −14.2%
  LDL, Mean Change: −11.6
  Total C, % Change: −10.4%
  Total C, Mean Change: −17.1
[3]; [4]
  reduction in LDL cholesterol: 13%
  reduction in total cholesterol: 9%
[3]; [5]
  reduction in LDL cholesterol: 15%
  reduction in total cholesterol: 10%
ETAR; Dose 0.25 mg
  Receptor Occupancy: 25%
ETAR; Dose 0.75 mg
  Receptor Occupancy: 47%
ETAR; Dose 1.75 mg
  Receptor Occupancy: 67%

From patent US9855245B2, “Methods for improving lipid profiles using atrasentan” (AbbVie Inc., priority 2013, dated 2018)
